From PMC5656322, “BAK1 is involved in AtRALF1-induced inhibition of root cell expansion” (PLoS Genetics, 2017)
Where no end group is shown, it is not given here.

Test system: intact Arabidopsis seedlings
Assay: Binding assay with acridinium-labeled AtRALF1, intact seedlings
Design: species or system Arabidopsis thaliana
Details: for competition of acriAtRALF1 binding: 10-fold excess of unlabeled peptide
Method: (A) Whole seedlings (5 days old) were treated for 15 min with acriAtRALF1 (acriR1), acriR1 and an excess of unlabeled AtRALF34 (R34), RALF1(9–49) [(R-9-49)], or AtRALF1 (R1), as indicated. The values are the mean ± SD of two measurements (5 seedlings each). (B) Microsomal fractions from wild-type and bak1 mutants were incubated for 15 min with acriAtRALF1 (acriR1), with acriR1 and an excess of unlabeled RALF1(9–49) [(R-9-49)], or with AtRALF1 (R1), as indicated. The values are the mean ± SD of two measurements. The proportions of labeled: unlabeled proteins are shown in parentheses. Single and triple asterisks indicate P < 0.1 and P < 0.01 (Student’s t test).
Arabidopsis seedlings were grown for 5 days on vertical plates. Roots were homogenized in extraction buffer [300 mM sucrose, 100 mM Tris-HCl pH 7.5, 25 mM EDTA, 25 mM NaF, 1 mM Na2MoO4, 1 mM PMSF and protease inhibitor cocktail (Roche), adjusted to pH 6.2], and the homogenate was spun at 2,000 x g for 10 min at 4 °C. The supernatant was recovered and centrifuged at 100,000 x g for 50 min at 4 °C to precipitate the microsomal pellet. The pellet was resuspended in the extraction buffer plus 0.5% Triton-X. Seedlings or microsomal fractions were placed in 200 μl of medium and incubated with 7 nM acridinium-labeled peptide (acriAtRALF1 or acriAtRALF34) and different concentrations of AtRALF1, AtRALF34 or RALF1(9–49) for 15–20 min at 4 °C on a shaker. After incubation, the seedlings or microsomal fractions were washed three times with the same medium. Unless indicated otherwise, five entire seedlings and approximately 10 ng of microsomal fractions were used per treatment. The resulting luminescence emissions from the acridinium were measured using a microplate reader (Biotec ELx 800) at 2 s after injecting 50 μl of a solution containing 20 mM H2O2 in 0.1 M NaOH. These experiments were repeated at least three times using independent biological replicates. Duplicates were used for each concentration or treatment. The data shown are from one representative experiment.
Supplementary file pgen.1007053.s017.pdf: S17 Fig Analyses of acridinium-labeled AtRALF1 (acriAtRALF1) and binding of acriAtRALF1 in bak1-4 and fer4 mutants. (A) The Ca^2+ mobilization assay comparing the acriAtRALF1 activity with the AtRALF1 peptide. A total of 20 time-points per treatment were measured over 160 sec and summed. The results are the means ± SD of two measurements. (B) acriAtRALF1 binding in whole seedlings and only in roots of Arabidopsis. The roots were excised just before measurements. Ctr, seedlings treated with unlabeled AtRALF1. (C) Whole seedlings (5 days old) were treated for 20 min with acriAtRALF1 (acriR1), acriR1 and an excess of unlabeled AtRALF1 (R1), as indicated. The values are the mean ± SD of three measurements (5 seedlings each). The proportions of labeled: unlabeled proteins are shown in parentheses. Triple asterisks indicates P < 0.001 (Student’s t test). (PDF) Click here for additional data file.
Supplementary file pgen.1007053.s018.pdf: S18 Fig Binding of acridinium-labeled AtRALF1 and AtRALF34 to intact Arabidopsis seedlings. (A) bak7 seedlings (5 days old) were treated for 15 min with acriAtRALF1 (acriR1), acriR1 and an excess of unlabeled AtRALF1 (R1), as indicated. (B) bak1 seedlings (5 days old) were treated for 15 min with acriAtRALF34 (acriR34), acriR34 and an excess of unlabeled AtRALF34 (R34) or AtRALF1 (R1), as indicated. The proportions of labeled: unlabeled proteins are shown in parentheses. The values are the mean ± SD of two measurements (5 seedlings each). (PDF) Click here for additional data file.

AtRALF1: root-specific RALF isoform in Arabidopsis; recombinant peptide hormone produced in E. coli (ATTKYISYQSLKRNSVPCSRRGASYYNCQNGAQANPYSRGCSKIARCRS; ends and bridges not checked; cysteine pairing not given here)
reduction of acriAtRALF1 binding (bak1-1, 10-fold excess of AtRALF1): approximately 32%
acriAtRALF1 binding reduced to (bak1-1, 100- or 500-fold excess of AtRALF1): 54%
reduction of acriAtRALF1 binding (bak1-3, 10-fold excess of AtRALF1): ~35%
acriAtRALF1 binding reduced to (bak1-3, 100- or 500-fold excess of AtRALF1): 63%
reduction of acriAtRALF1 binding (bak1-4, 10-fold excess of AtRALF1): ~33%
acriAtRALF1 binding reduced to (bak1-4, 100- or 500-fold excess of AtRALF1): 61%
share of AtRALF1 binding due to BAK1 (intact roots): approximately 30%
reduction of acriAtRALF1 binding (wild-type seedlings, 10-fold excess of unlabeled AtRALF1): 24%
reduction of acriAtRALF1 binding (wild-type seedlings, 100-fold excess of AtRALF1, printed "up to"): 59%
further reduction of acriAtRALF1 binding (wild-type seedlings, 500-fold excess of AtRALF1): No further reduction was observed

RALF1(9–49): inactive AtRALF1 peptide which has a deletion of the first 8 amino acids (QSLKRNSVPCSRRGASYYNCQNGAQANPYSRGCSKIARCRS; ends and bridges not checked; cysteine pairing not given here; UniProt Q9SRY3 80-120, looked up, fragment)
competition of acriAtRALF1 binding (bak1 mutants): did not reduce the binding in the mutant backgrounds
competition of acriAtRALF1 binding (wild-type seedlings, 7 nM acriAtRALF1, 15 min, 4 °C): could not be competed out
